In US8431169B2, “Nutraceutical composition and methods of use” (Dacy Tech Pty Ltd, priority 2007, dated 2013):

Experiments:
[1] = tested on: Normal Human Articular Chondrocytes (NHAC-knee); experiment: BrdU cell proliferation assay; format: cell-based
Protocol: Clonetics® Normal Human Articular Chondrocytes (NHAC-knee) obtained from Lonza Australia Pty Ltd, were grown in chondrocyte growth medium (CGM) supplemented with growth factors. NHACs were used at passage #3-4 for all experiments.
The following assays were carried out using the protocols as per kit instructions:
Each of the above fractions was then individually assayed again for viability/cytotoxicity, cell growth and proliferation, apoptosis/necrosis using the tests as previously mentioned.

iNOS = iNOS expression in IL-1-stimulated cartilage explants; format: cell-based, pig; conditions: IL-1-stimulated explants
Protocol: Simulated digests were prepared using SEQ (0.85 g), BO [2.5 mL (0.85 g)] and indomethacin (0.074 g—a positive anti-inflammatory control). […]

aggrecan = aggrecan RNA expression in cartilage explants (real time RT-PCR); format: cell-based, pig; conditions: indosim 0.02 mg/mL
Protocol: Front legs of market weight pigs (5-7 months old, 200-250 lbs) were obtained from a local abattoir. Legs were chilled on crushed ice until dissection. Using aseptic technique, the intercarpal joint was opened and the cartilage surfaces exposed. A 4 mm dermal biopsy punch was used to take explants (˜0.5 mm thickness; 11-15 mg/explant) of healthy cartilage from the weight-bearing region of both articulating surfaces of the intercarpal joint. Cartilage pieces were washed 3 times in Dubelco's Modified Eagle Medium (DMEM) supplemented with NaHCO3. Two cartilage discs were placed into each well of 24-well tissue culture plates containing DMEM supplemented with amino acids, sodium selenite, manganese sulfate, NaHCO3 and ascorbic acid (TCM—tissue culture medium). Plates were incubated at 37° C., 7% CO2 in a humidified atmosphere for up to 144 h. Every 24 h media was completely aspirated into 1 mL microcentrifuge tubes and immediately replaced with control, conditioned and/or stimulated media (described below) before being returned to the incubator. The collected media was stored at −80° C. until analysis. Cartilage was harvested at the end of each experiment with one explant per well stained for cytotoxicity and the remaining cartilage immediately frozen at −80° C. […]
SEQsim was prepared as explained above. […] Media was analyzed for [PGE2], [GAG], and [NO]. […]

[2] = tested on: IL-1 stimulated and unstimulated cartilage explants; experiment: nitric oxide (nitrite) in media from cartilage explants; format: cell-based, pig; conditions: IL-1-stimulated explants; indosim
Protocol: Simulated digests were prepared using SEQ (0.85 g), BO [2.5 mL (0.85 g)] and indomethacin (0.074 g—a positive anti-inflammatory control). Each test substance was individually suspended in 35 mL of simulated gastric fluid (37 mM NaCl, 0.03N HCl, 3.2 mg/mL pepsin), and shaken at 37° C. for 2 h (Rininger et al., 2000). After this, solution acidity was neutralized by adding an equinormal volume of 2.2 N NaOH (1.15 mL). To this was added 36.15 mL of simulated intestinal fluid (Rininger et al., 2000−30 mM K2HPO4, 160 mM NaH2PO4; 20 mg/mL pancreatin; pH adjusted to 7.4) and the resultant mixture shaken in a 37° C. incubator for a further 2 h. A “blank” was prepared using identical methodology but without including any test substance.
The supernatant was decanted and centrifuged a second time at 3,000×g for 15 min at 4° C. […]
Synovial fluid [NO]: Nitrite (NO2^−), a stable oxidation product of NO, was analyzed by the Griess reaction (Fenton et al., 2002). […] Sulfanilamide (0.01 g/mL) and N-(1)-Napthylethylene diamine hydrochloride (1 mg/mL) dissolved in phosphoric acid (0.085 g/L) was added to all wells, and absorbance was read within 5 minutes on a Victor 3 microplate reader at 530 nm. Sample absorbance was compared to a sodium nitrite standard.

[3] = tested on: IL-1 stimulated and unstimulated cartilage explants; experiment: GAG release into media by cartilage explants (1,9-DMB assay); format: cell-based, pig; conditions: indosim 0.02 mg/mL
Protocol: Front legs of market weight pigs (5-7 months old, 200-250 lbs) were obtained from a local abattoir. Legs were chilled on crushed ice until dissection. Using aseptic technique, the intercarpal joint was opened and the cartilage surfaces exposed. A 4 mm dermal biopsy punch was used to take explants ( 0.5 mm thickness; 11-15 mg/explant) of healthy cartilage from the weight-bearing region of both articulating surfaces of the intercarpal joint. Cartilage pieces were washed 3 times in Dubelco's Modified Eagle Medium (DMEM) supplemented with NaHCO3. Two cartilage discs were placed into each well of 24-well tissue culture plates containing DMEM supplemented with amino acids, sodium selenite, manganese sulfate, NaHCO3 and ascorbic acid (TCM-tissue culture medium). Plates were incubated at 37° C., 7% CO2 in a humidified atmosphere for up to 144 h. Every 24 h media was completely aspirated into 1 mL microcentrifuge tubes and immediately replaced with control, conditioned and/or stimulated media (described below) before being returned to the incubator. […] Media was analyzed for [PGE2], [GAG], and [NO]. […] Media GAG concentration was determined using a 1,9-DMB spectrophotometric assay (Chandrasekhar et al., 1987). […] Plates were incubated in the dark for 10 minutes, and absorbance was read on a Victor 3 microplate reader at 530 nm. Sample absorbance was compared to that of a chondroitin sulfate standard. […]

[4] = tested on: IL-1-stimulated and unstimulated cartilage explants; experiment: cell viability staining of cartilage explants (C-AM / EthD-1); format: cell-based, pig; conditions: indosim 0.02 mg/mL
Protocol: Front legs of market weight pigs (5-7 months old, 200-250 lbs) were obtained from a local abattoir. Legs were chilled on crushed ice until dissection. Using aseptic technique, the intercarpal joint was opened and the cartilage surfaces exposed. A 4 mm dermal biopsy punch was used to take explants ( 0.5 mm thickness; 11-15 mg/explant) of healthy cartilage from the weight-bearing region of both articulating surfaces of the intercarpal joint. Cartilage pieces were washed 3 times in Dubelco's Modified Eagle Medium (DMEM) supplemented with NaHCO3. Two cartilage discs were placed into each well of 24-well tissue culture plates containing DMEM supplemented with amino acids, sodium selenite, manganese sulfate, NaHCO3 and ascorbic acid (TCM-tissue culture medium). Plates were incubated at 37° C., 7% CO2 in a humidified atmosphere for up to 144 h. Every 24 h media was completely aspirated into 1 mL microcentrifuge tubes and immediately replaced with control, conditioned and/or stimulated media (described below) before being returned to the incubator. […] Media was analyzed for [PGE2], [GAG], and [NO]. […] Cell viability was determined using a commercially available viability staining kit (Invitrogen; Burlington ON) (Pearson et al., 2007). […] The plate was read from the bottom of each well using 10 horizontal steps, 3 vertical steps, and a 0.1 mm displacement.

Row | SMILES | NHAC proliferation (BrdU) [1] | IL-1-mediated iNOS expression (iNOS) | aggrecan increase after IL-1 stimulation (aggrecan; IL-1-stimulated (10 ng/mL) explants) | increase in aggrecan expression (aggrecan; unstimulated explants) [fold] | IL-1-mediated NO production [2] | media [GAG] compared with stimulated controls ([3]; IL-1-stimulated explants, p=0.1) | media [GAG] compared with unstimulated controls ([3]; unstimulated explants) | cell viability ([4]; IL-1-stimulated explants) | cell viability ([4]; unstimulated explants)
1 | CCCCCCCCC=CCCCCCCCC(=O)O [Fraction F1.4, 9-Octadecenoic acid] | most active | – | – | – | – | – | – | – | –
2 | COc1ccc2c(c1)c(CC(=O)O)c(C)n2C(=O)c1ccc(Cl)cc1 [indosim, indomethacin] | – | augmenting effect | completely abolished | 58 | increase | elevated compared with stimulated controls over the duration of the experiment, but not significantly | significantly higher | no significant effect | no significant effect
